Results published in ChEMBL document CHEMBL4706721, “Novel Pyridazinones as TRPC5 Inhibitors for Treating Kidney Diseases” (ACS Med Chem Lett, 2021).
pIC50: −log10 of the molar value.

molecular target: T1, Short transient receptor potential channel 5 (Homo sapiens, UniProt Q9UL62); test: Inhibition of human TRPC5 expressed in HEK293-T-REx cells assessed as decrease in riluzole-induced calcium response preincubated for 5 min followed by riluzole stimulation by Fluo-4 AM dye based FLIPR assay; assay type: cell-based
T1 sequence (Q9UL62 whole entry): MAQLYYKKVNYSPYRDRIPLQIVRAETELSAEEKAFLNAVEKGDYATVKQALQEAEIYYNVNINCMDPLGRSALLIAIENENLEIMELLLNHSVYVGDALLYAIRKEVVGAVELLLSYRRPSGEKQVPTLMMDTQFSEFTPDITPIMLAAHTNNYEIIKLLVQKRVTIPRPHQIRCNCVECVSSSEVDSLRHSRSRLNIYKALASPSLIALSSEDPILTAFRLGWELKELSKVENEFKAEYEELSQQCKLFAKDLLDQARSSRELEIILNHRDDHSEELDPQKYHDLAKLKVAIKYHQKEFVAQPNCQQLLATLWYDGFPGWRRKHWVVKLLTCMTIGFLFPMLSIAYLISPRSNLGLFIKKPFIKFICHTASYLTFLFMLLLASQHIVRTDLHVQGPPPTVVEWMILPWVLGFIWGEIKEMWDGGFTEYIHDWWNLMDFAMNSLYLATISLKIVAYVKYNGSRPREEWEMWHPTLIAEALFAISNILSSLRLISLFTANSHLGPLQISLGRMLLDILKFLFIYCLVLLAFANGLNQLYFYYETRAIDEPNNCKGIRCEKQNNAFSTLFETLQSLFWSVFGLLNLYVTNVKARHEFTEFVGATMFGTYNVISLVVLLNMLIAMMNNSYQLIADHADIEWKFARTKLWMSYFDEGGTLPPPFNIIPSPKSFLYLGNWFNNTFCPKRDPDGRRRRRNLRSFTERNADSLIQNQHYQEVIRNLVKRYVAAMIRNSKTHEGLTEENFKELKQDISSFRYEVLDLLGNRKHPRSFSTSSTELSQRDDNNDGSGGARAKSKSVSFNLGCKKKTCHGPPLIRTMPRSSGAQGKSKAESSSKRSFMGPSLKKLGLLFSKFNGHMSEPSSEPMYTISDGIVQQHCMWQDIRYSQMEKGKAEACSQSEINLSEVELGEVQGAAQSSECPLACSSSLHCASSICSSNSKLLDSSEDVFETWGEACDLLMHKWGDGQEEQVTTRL

pIC50	Structure (SMILES)
≥ 7.30	CN(c1cnccc1C(F)(F)F)c1ncnc2c1CCN(c1cn[nH]c(=O)c1Cl)C2
≥ 7.30	O=c1[nH]ncc(N2CCc3c(ncnc3Oc3ccc(F)cc3Cl)C2)c1Cl
≥ 7.30	CCc1c(F)cccc1Oc1ncnc2c1CCN(c1cn[nH]c(=O)c1Cl)C2
≥ 7.30	O=c1[nH]ncc(N2CCc3c(ncnc3N(CCO)c3ccc(F)cc3C(F)(F)F)C2)c1Cl
≥ 7.30	O=c1[nH]ncc(N2CCc3c(ncnc3Oc3ccccc3C(F)(F)F)C2)c1Cl
